Test results as given in patent publication US20070009593A1, “Methods of treating cancer” (Indianan University Advanced Research, priority 2002, published 2007).
Where two headings read alike, the source gives them in different places.

Experiments:
[1] = test system: A549; test: MTT assay, NSCLC cell line; assay type: cell-based; settings: Homo sapiens
[2] = test system: H522; test: MTT assay, NSCLC cell line; assay type: cell-based; settings: Homo sapiens
[3] = test system: H23; test: MTT assay, NSCLC cell line; assay type: cell-based; settings: Homo sapiens, NCI-H23
[4] = test system: MCF7; test: MTT assay, breast cancer line; assay type: cell-based; settings: Homo sapiens, MCF7, read-out: Ritonavir IC50
Description: (§1) The drugs were tested together at the ratio of their IC50 as single agents, over a 4-log range of concentrations. […] Viable cell number was measured by MTT assay.

[5] = test system: MDA-231; test: MTT assay, breast cancer line; assay type: cell-based; settings: Homo sapiens
Description: as §1

[6] = test system: MDA-436; test: MTT assay, breast cancer line; assay type: cell-based; settings: Homo sapiens, read-out: Ritonavir IC50; MDA-436 parental line
Description: as §1

[7] = test system: SKBR-3; test: MTT assay, breast cancer line; assay type: cell-based; settings: Homo sapiens, SK-BR-3, read-out: Ritonavir IC50
Description: as §1

[8] = test system: T47D; test: MTT assay, breast cancer line; assay type: cell-based; settings: Homo sapiens, read-out: Ritonavir IC50
Description: as §1

[9] = test system: MDA-436IκBSR (super-repressor of NF-κB over-expressed); test: MTT assay, breast cancer line; assay type: cell-based; settings: Homo sapiens, read-out: Ritonavir IC50
[10] = target: T1, m-calpain (Homo sapiens, UniProt P17655); test: ionomycin activated m-calpain activity in Caco 2A cells; assay type: cell-based; settings: 0, 5, 10, 20, and 120 μM, FIG. 3
T1 construct: endogenous in cells; host or cells: Caco 2A
Description: (The Caco 2a calls were treated and analyzed as in Example 4).

[11] = test system: calpain cleavage of α-fodrin; test: NFF score, IHC with PP1 antibody, ritonavir treated mice; assay type: in vivo; settings: 10 days
Source text: Differentiation of the stratum spinosum of tongue epithelium was affected, with a reduction of nuclear involution as well as an increase in the keratinized layer (FIGS. 5A-5C). […] Previous observations of the proliferative rate of tongue compared to skin in mice indicate that tongue is a more proliferative epithelium (Hume, W. J. Cell Tissue Kinet. 19:195-203 (1986)).
The antiserum specific for the calpain-dependent α-fodrin cleavage, PP1, was used at 1:100 dilution. Competition with specific peptide blocked nuclear staining. The size bar is […]. […] Arrows indicate basal layer nuclei. The vertical bar indicates maximum thickness of the keratinized layer in each image.

[12] = target: T2, chymotryptic active site of the proteasome (ZGGL-AMC cleavage) (Homo sapiens, UniProt P28074); test: fluorometric assay of ZGGL-AMC cleavage by Caco 2 cells; assay type: cell-based; settings: for ZGGL-AMC cleavage: Caco 2 cells (DMSO control 0.287)
T2 construct: Fluorometric assay of ZGGL-AMC cleavage by Caco 2 cells; endogenous in cells; host or cells: Caco 2

[13] = test system: Surface EGFR; test: surface EGFR in breast cancer lines under ritonavir; assay type: cell-based, human; design: reference not given here
[14] = in vivo; settings: mouse, ip

T1 sequence (P17655 20-700 limits assumed): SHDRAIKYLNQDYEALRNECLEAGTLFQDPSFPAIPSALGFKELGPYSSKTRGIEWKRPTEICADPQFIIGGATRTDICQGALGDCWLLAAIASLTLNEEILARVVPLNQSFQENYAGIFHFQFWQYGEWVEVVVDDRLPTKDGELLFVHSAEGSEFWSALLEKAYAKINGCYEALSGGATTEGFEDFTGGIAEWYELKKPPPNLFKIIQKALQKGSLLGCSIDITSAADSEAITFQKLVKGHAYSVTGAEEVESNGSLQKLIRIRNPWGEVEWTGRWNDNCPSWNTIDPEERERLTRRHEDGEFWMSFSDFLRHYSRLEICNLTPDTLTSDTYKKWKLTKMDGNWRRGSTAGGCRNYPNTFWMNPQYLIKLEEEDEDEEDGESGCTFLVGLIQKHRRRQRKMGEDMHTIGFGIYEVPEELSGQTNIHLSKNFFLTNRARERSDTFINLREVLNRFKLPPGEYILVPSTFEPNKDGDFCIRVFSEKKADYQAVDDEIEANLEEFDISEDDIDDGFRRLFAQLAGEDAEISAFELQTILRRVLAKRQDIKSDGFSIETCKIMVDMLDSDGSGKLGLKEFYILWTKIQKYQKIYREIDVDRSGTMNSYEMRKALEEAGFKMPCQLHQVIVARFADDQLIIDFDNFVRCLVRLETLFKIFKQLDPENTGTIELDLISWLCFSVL
T1 sequence (P04632 whole entry partner): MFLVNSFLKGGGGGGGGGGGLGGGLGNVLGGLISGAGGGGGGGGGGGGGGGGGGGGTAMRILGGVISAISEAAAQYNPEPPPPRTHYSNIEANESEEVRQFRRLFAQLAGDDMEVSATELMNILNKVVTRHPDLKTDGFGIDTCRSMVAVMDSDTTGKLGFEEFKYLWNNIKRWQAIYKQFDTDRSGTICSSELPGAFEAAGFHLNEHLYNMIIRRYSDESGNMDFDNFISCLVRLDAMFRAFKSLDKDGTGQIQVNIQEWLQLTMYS

`CC(C)c1nc(CN(C)C(=O)N[C@H](C(=O)N[C@@H](Cc2ccccc2)C[C@H](O)[C@H](Cc2ccccc2)NC(=O)OCc2cncs2)C(C)C)cs1` [Ritonavir, ritonavir] showed an IC80 ([1]; A549, MTT assay, single agent) of 45 µM, an IC50 ([1]; MTT assay) of 35 µM and an IC50 ([2]; NCI-H522) of 42.5 µM. The IC80 ([2]; NCI-H522, single agent) was 90 µM, the IC50 [3] was 44 µM and the IC50 [4] was 25 µM. For the same compound, the IC50 ([5]; MDA-MB-231, read-out: Ritonavir IC50, MDA-231) was 50 µM, the IC50 ([5]; MDA-MB-231, MDA-231, 48 hours, MTT, single agent, read-out: IC50) was 60 µM and the IC50 [6] was 40 µM. It also gave an IC50 [7] of 60 µM, an IC50 [8] of 12 µM and an IC50 [9] of 26 µM. For the same compound, the inomycin activated m-calpain [10] was “dose dependent decrease”, the NFF score ([11]; tongue basal cell layer, 12 μM peak) was 34% and the NFF score ([11]; tongue basal cell layer, 67 μM peak) was 1%. For the same compound, the NFF score ([11]; ventral skin basal cell layer, 12 μM peak) was 27%, the NFF score ([11]; ventral skin basal cell layer, 67 μM peak) was 17% and the ZGGL-AMC cleavage ([12]; 6 μM) was 0.432 pmol·s^1− 10^6 cells. For the same compound, the ZGGL-AMC cleavage ([12]; 12 μM) was 0.412 pmol·s^1− 10^6 cells, the ZGGL-AMC cleavage ([12]; 24 μM) was 0.337 pmol·s^1− 10^6 cells and the ZGGL-AMC cleavage ([12]; 60 μM) was 0.409 pmol·s^1− 10^6 cells. The “effect on ZGGL-AMC cleavage” value ([12]; Caco 2 cells) was “does not block cleavage”, the “Surface EGFR (Ritonavir)” value ([13]; MCF7, ritonavir treatment) was 1 and the “Surface EGFR (Ritonavir)” value ([13]; MDA-231, ritonavir treatment) was 0.5. The “Surface EGFR (Ritonavir)” value ([13]; MDA-436, ritonavir treatment) was 0.5, the “Surface EGFR (Ritonavir)” value ([13]; SKBR-3, ritonavir treatment) was 0.36 and the “Surface EGFR (Ritonavir)” value ([13]; T47D, ritonavir treatment) was 1. The half-life [14] was under 3 h.
